Results: patent US5342843A, “Thienoimidazoppyridone derivatives” (Kyowa Hakko Kogyo Co., Ltd., priority 1991, dated 1994)

Key:
guinea pig trachea = experiment: Passive Schultz-Dale reaction (relaxation of ovalbumin-induced contraction of passively sensitized trachea); parameters: species or system male Hartley guinea pigs; settings: Cavia porcellus; concentration causing 50% relaxation; ovalbumin 1 μg/ml, cumulative addition; isolated trachea, 37° C.
Description: Rabbit anti-OA serum prepared in advance by the method of Kohda, et al. [Folia Pharmacol. Japan, Vol. 66, p. 237 (1970)], was intraperitoneally administered to male Hartley guinea pigs weighing 350-500 g for passive sensitization, and 24 hours later tracheas of the animals were removed, and used for the following test. The tracheas were cut into zig-zag strips by the method of Emmerson and Mackay [J. Pharm. Pharmacol., Vol. 31, p.798 (1979)], were suspended in Krebs-Hensleit solution at 37° C. under aeration of a gas mixture of 95% oxygen and 5% carbon dioxide, and equilibrated for about 1 hour. The antigen, ovalbumin, was added to a bath (final concentration; 1 μg/ml). The contraction was recorded using an isotonic transducers (TD-112S; Nihon Koden Kogyo Co.) connected to a recorder (TYPE 3066; Yokogawa Hokushin Electric). Following the contraction curves reached a plateau, a test compound was cumulatively added in order to calculate the concentration causing 50% relaxation (IC50) which was determined from least-squares regression analysis.

[1] = system: plaque-forming cells (PFC); experiment: Inhibiting effect on plaque-forming cells (PFC); format: cell-based, Balb/c strain male mice; settings: 120 h; concentration: 10^-5 M; mouse spleen cells, 5 days culture; read-out: PFC inhibition rate (%)
Source text: The method devised by Jerne, et al. [Science, Vol. 140, p.405 (1963)] was followed while referring to the method of Yamamoto, et al. [Drugs Exptl. Clin. Res., Vol. 8, p.5 (1982)]. That is, Balb/c strain male mice (7-week-old/SLC) were sensitized with 1×10^8 sheep erythrocytes (manufactured by Bio Test Research Institute), and the spleen was extirpated on the 6th or 7th day. The erythrocytes were removed using ACT solution [Tris (hydroxymethyl) aminomethane-NH4 Cl solution] from the spleen cells, and were washed with RPMI-1640 medium (manufactured by Nissui Seiyaku Co.) three times. Suspensions of the obtained cells (1×10^7) and the sheep erythrocytes (5×10^6) were suspended with RPMI-1640 medium containing the test compound, 2-mercaptoethanol (5×10^-5 M), 10% bovine fetal serum (manufactured by Gibco Co.), streptomycin and penicillin. The obtained cell suspension was distributed into a 24-well microculture plate, and cultured in a carbon dioxide gas incubator at 37° C. for 5 days.
After the completion of culturing, the cells were transferred to a plastic test tube. They are centrifuged at 2000 rpm and the supernatant was removed. Then, the cells were further suspended in 1 ml of RPMI-1640. The cell suspension was charged, together with the sheep erythrocytes and the guinea pig complements, into a Cunningham chamber (manufactured by Takahashi Giken Co.), by the method of Cunningham, et al. [Immunology, Vol. 14, p.599 (1968)]. The cells were incubated at 37° C. for 1-2 hours, and then a direct PFC count was determined.

| SMILES | IC50 (guinea pig trachea) [µM] | inhibition at 10 µM [1] [%] |
| --- | --- | --- |
| CCCCn1c(=O)c2c(ncn2C)c2ccsc21 [Compound 32, 5-n-butyl-3-methylthieno [2,3-b]-3H-imidazo [4,5-d]pyridine-4 (5H)-one] | 0.854 | 16.5 |
| CCCn1c(=O)c2c(ncn2C)c2sccc21 [Compound 12, 3-methyl-5-n-propylthieno [3,2-b]-3H-imidazo [4,5-d]pyridine-4(5H)-one] | 2.95 | 60.4 |
| CCn1c(=O)c2c(ncn2C)c2sccc21 [Compound 17, 5-ethyl-3-methylthieno[3,2-b]-3H-imidazo[4,5-d]pyridine-4 (5H)-one] | 10.5 | 47 |
| CCCn1c(=O)c2c(ncn2Cc2ccccc2)c2sccc21 [Compound 13, 3-benzyl-5-n-propylthieno [3,2-b]-3H-imidazo [4,5-d]pyridine-4(5H)-one] |  | 68.3 |
| CC(C)n1c(=O)c2ncn(C)c2c2sccc21 [Compound 9, 5-isopropyl-1-methylthieno[3,2-b]-1H-imidazo[4,5-d]pyridine-4(5H)-one] | 7.29 | 23.8 |
| CC(C)n1c(=O)c2c(ncn2C)c2sccc21 [Compound 7, 5-isopropyl-3-methylthieno[3,2-b]-3H-imidazo[4,5-d]pyridine-4(5H)-one] | 3.53 | 29.5 |
| CCCn1c(=O)c2[nH]cnc2c2sccc21 [Compound 11, 5-n-propylthieno [3,2-b]-3H-imidazo [4,5-d]pyridine-4(5H)-one] | 0.922 |  |
| CCCCn1c(=O)c2c(ncn2Cc2ccccc2)c2ccsc21 [Compound 33, 3-benzyl-5-n-butylthieno [2,3-b]-3H-imidazo [4,5-d]pyridine-4 (5H)-one] | 36.9 | 94.8 |
| CCn1c(=O)c2ncn(Cc3ccccc3)c2c2sccc21 [Compound 20, 1-benzyl-5-ethylthieno [3,2-b]-1H-imidazo [4,5-d]pyridine-4 (5H)-one] | 3.41 |  |
| CCCCn1c(=O)c2ncn(C)c2c2ccsc21 [Compound 34, 5-n-butyl-1-methylthieno [2,3-b]-1H-imidazo [4,5-d]pyridine-4 (5H)-one] | 8.98 | -16.5 |
| CCCn1c(=O)c2ncn(Cc3ccccc3)c2c2ccsc21 [Compound 39, 1-benzyl-5-n-propylthieno [2,3-b]-1H-imidazo [4,5-d]pyridine-4 (5H)-one] | 2.39 |  |
| CCCCn1c(=O)c2ncn(Cc3ccccc3)c2c2ccsc21 [Compound 35, 1-benzyl-5-n-butylthieno [2,3-b]-1H-imidazo [4,5-d]pyridine-4 (5H)-one] | 6.06 | -3.8 |
| CCCn1c(=O)c2ncn(C)c2c2sccc21 [Compound 14, 1-methyl-5-n-propylthieno [3,2-b]-1H-imidazo [4,5-d]pyridine-4 (5H)-one] | 6.56 |  |
| CCn1c(=O)c2ncn(C)c2c2sccc21 [Compound 19, 5-ethyl-1-methylthieno [3,2-b]-1H-imidazo [4,5-d]pyridine-4 (5H)-one] | 9.98 |  |
| CCCCn1c(=O)c2[nH]cnc2c2sccc21 [Compound 1, 5-n-butylthieno[3,2-b]-3H-imidazo[4,5-d]pyridine-4(5H)-one] | 4.63 | 39.3 |
| CCCCn1c(=O)c2c(ncn2Cc2ccccc2)c2sccc21 [Compound 3, 3-benzyl-5-n-butylthieno [3,2-b]-3H-imidazo [4,5-d]pyridine-4 (5H)-one] |  | 92.4 |
| CCn1c(=O)c2[nH]cnc2c2sccc21 [Compound 16, 5-ethylthieno[3,2-b]-3H-imidazo[4,5-d]pyridine-4(5H)one] | 0.657 | 83.1 |
| CC(C)n1c(=O)c2[nH]cnc2c2sccc21 [Compound 6, 5-isopropylthieno [3,2-b]-3H-imidazo [4,5-d]pyridine-4 (5H)-one] | 2.67 | 8.8 |
| CCCCn1c(=O)c2[nH]cnc2c2ccsc21 [Compound 31, 5-n-butylthieno [2,3-b]-3H-imidazo [4,5-d]pyridine-4 (5H) one] | 0.416 | -10.9 |
| CCCCn1c(=O)c2c(ncn2C)c2sccc21 [Compound 2, 5-n-butyl-3-methylthieno[3,2-b]-3H-imidazo[4,5-d]pyridine-4(5H)-one] | 12.2 | 43.3 |
